{
  "source": "patent US20140178367A1",
  "about": "“Methods of Treating Inflammatory Diseases by Targeting the Chemoattractant Cytokine Receptor 2 (CCR2) or Chemokine (C-C motif) Ligand 2 (CCL2)” (THE Brigham and Women's Hospital, Inc., priority 2011, published 2014)",
  "origin": "cited, not measured here",
  "system": "patients with ALS",
  "data": [
    {"smiles": "Nc1nc2ccc(OC(F)(F)F)cc2s1", "note": "[riluzole]", "values": [
      {"measurement": "prolongs life", "result": "only a few months"}
    ]}
  ]
}
